Laboratory results as given in patent US20180073031A1, “TRANSCRIPTIONAL SENSOR FOR BILE ACIDS IN BACTEROIDES THETAIOTAOMICRON” (priority 2016, published 2018).

How the values were obtained:
[1] = test system: bile acid sensor BreR from V. cholerae; format: cell-based; details: for Sensitivity: BreR bile acid sensor in B. thetaiotaomicron; for Sensitivity / Basal Activity: ± SD; for Basal Activity / Dynamic Range: BreR bile acid sensor; for Basal Activity: basal reporter luminescence; for Dynamic Range: reporter induction; for sensor sensitive to substance (FIG. 4 legend): in vitro functionality; for induction of reporter luminescence by bile acid: strain grown with various concentrations of bile acids, FIGS. 4B-4G
[2] = test system: VFA0359 from Vibrio fischeri; assay: Luciferase assay of bile acid sensor using VFA0359 in B. thetaiotaomicron; format: cell-based; details: same operator sequence as BreR

SMILES	relative sensitivity of the sensor among deconjugated bile acids [1]	Sensitivity [1] [Lum/μM*10^−5]	Basal Activity [1] [Lum × 10^4]	Dynamic Range [1] [fold-change]	sensor sensitive to substance (FIG. 4 legend) [1]	induction of reporter luminescence by bile acid [1]	induced gene expression of the reporter construct [2] [fold]
C[C@H](CCC(=O)O)[C@H]1CC[C@H]2[C@@H]3[C@H](O)C[C@@H]4C[C@H](O)CC[C@]4(C)[C@H]3C[C@H](O)[C@]12C [CA, cholic acid]	least sensitive	0.8 ± 0.2	2.1 ± 0.7	18.5 ± 3.8	sensitive	induced luminescence in a dose dependent manner	
C[C@H](CCC(=O)O)[C@H]1CC[C@H]2[C@@H]3[C@H](O)C[C@@H]4C[C@H](O)CC[C@]4(C)[C@H]3CC[C@]12C [CDCA, chenodeoxycholic acid]	moderately sensitive	2.3 ± 1.1	1.9 ± 0.4	25.8 ± 11.1	sensitive	induced luminescence in a dose dependent manner	
C[C@H](CCC(=O)O)[C@H]1CC[C@H]2[C@@H]3CC[C@@H]4C[C@H](O)CC[C@]4(C)[C@H]3C[C@H](O)[C@]12C [DCA, deoxycholic acid]		25.8 ± 7.6	1.7 ± 0.8	71.5 ± 3.4			~600
C[C@H](CCC(=O)NCC(=O)O)[C@H]1CC[C@H]2[C@@H]3[C@H](O)C[C@@H]4C[C@H](O)CC[C@]4(C)[C@H]3C[C@H](O)[C@]12C [GCA, glycocholic acid]					not	does not sense	
C[C@H](CCC(=O)O)[C@H]1CC[C@H]2[C@@H]3CC[C@@H]4C[C@H](O)CC[C@]4(C)[C@H]3CC[C@]12C [LCA, lithocholic acid]		1.4 ± 0.8	2.2 ± 0.9	17.5 ± 4.9			
C[C@H](CCC(=O)NCCS(=O)(=O)O)[C@H]1CC[C@H]2[C@@H]3[C@H](O)C[C@@H]4C[C@H](O)CC[C@]4(C)[C@H]3C[C@H](O)[C@]12C [TCA, taurocholic acid]					not	does not sense	
CC(C)CCC[C@@H](C)[C@H]1CC[C@H]2[C@@H]3CC=C4C[C@@H](O)CC[C@]4(C)[C@H]3CC[C@]12C [cholesterol]					not		
